Patent US20240190880A1 (THE REGENTS OF THE UNIVERSITY OF MICHIGAN, priority 2021, published 2024)

target: T1, ER (Homo sapiens, UniProt P03372); assay: ER degradation activity, in-cell western blot analysis in T47D cells; format: cell-based; settings: 16 hours, Table A does not say which cell line (T47D or MCF7), read-out: Potency (DC50)
T1 construct: host or cells: T47D and MCF7 human breast cancer cells
T1 sequence (P03372 1-595): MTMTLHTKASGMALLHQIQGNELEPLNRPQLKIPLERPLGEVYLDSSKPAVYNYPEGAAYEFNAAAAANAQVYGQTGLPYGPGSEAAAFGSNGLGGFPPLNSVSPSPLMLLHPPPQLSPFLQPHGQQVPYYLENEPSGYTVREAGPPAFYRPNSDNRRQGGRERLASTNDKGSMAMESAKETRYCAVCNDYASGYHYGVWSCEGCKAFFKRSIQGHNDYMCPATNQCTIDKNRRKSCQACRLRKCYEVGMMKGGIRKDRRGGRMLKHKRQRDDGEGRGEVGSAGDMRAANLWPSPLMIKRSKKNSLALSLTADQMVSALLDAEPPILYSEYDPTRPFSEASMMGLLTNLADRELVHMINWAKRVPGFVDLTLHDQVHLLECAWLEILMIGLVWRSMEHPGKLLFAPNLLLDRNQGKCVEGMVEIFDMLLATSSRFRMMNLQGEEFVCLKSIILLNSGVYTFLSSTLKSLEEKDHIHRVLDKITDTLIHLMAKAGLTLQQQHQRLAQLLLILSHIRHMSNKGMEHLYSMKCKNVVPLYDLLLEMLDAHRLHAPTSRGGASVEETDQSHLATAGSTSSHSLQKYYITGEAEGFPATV
Outline: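 T47D cells cultured in DMEM with 10% FBS, treated with compounds (final 0.5% DMSO) for 16 h. ER level measured by in-cell western with anti-rabbit-680/anti-mouse-800 near-infrared detection. Relative ER percentage calculated against untreated and DMSO-treated wells set as 100%.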

SMILES | DC50
C[C@@H]1Cc2c([nH]c3ccccc23)[C@@H](c2c(F)cc(N3CCC4(CCN(C(=O)CN5Cc6cc7c(cc6C5)C(=O)N(C5CCC(=O)NC5=O)C7=O)CC4)CC3)cc2F)N1CC(F)F (stereo partly drawn) [E 112, 6-(2-(9-(4-((1R,3R)-2-(2,2-difluoroethyl)-3-methyl-2,3,4,9-tetrahydro-1H-pyrido[3,4-b]indol-1-yl)-3,5-difluorophenyl)-3,9-diazaspiro[5.5]undecan-3-yl)-2-oxoethyl)-2-(2,6-dioxopiperidin-3-yl)-6,7-dihydropyrrolo[3,4-f]isoindole-1,3(2H,5H)-dione] | < 10 nM
C[C@@H]1Cc2c([nH]c3ccccc23)[C@@H](c2c(F)cc(N3CCC(CN4CCC(CN5Cc6cc7c(cc6C5)C(=O)N(C5CCC(=O)NC5=O)C7=O)CC4)CC3)cc2F)N1CC(F)F (stereo partly drawn) [E 128, 6-((1-((1-(4-((1R,3R)-2-(2,2-difluoroethyl)-3-methyl-2,3,4,9-tetrahydro-1H-pyrido[3,4-b]indol-1-yl)-3,5-difluorophenyl)piperidin-4-yl)methyl)piperidin-4-yl)methyl)-2-(2,6-dioxopiperidin-3-yl)-6,7-dihydropyrrolo[3,4-f]isoindole-1,3(2H,5H)-dione] | < 10 nM
O=C1CCC(N2C(=O)c3cc4c(cc3C2=O)CN(CC2CN(C(=O)C3CCN(c5ccc([C@@H]6c7ccc(O)cc7CC[C@@H]6c6ccccc6)cc5)CC3)C2)C4)C(=O)N1 (mixture of isomers) [E 16, Rac-2-(2,6-dioxopiperidin-3-yl)-6-((1-(1-(4-((1R,2S)-6-hydroxy-2-phenyl-1,2,3,4-tetrahydronaphthalen-1-yl)phenyl)piperidine-4-carbonyl)azetidin-3-yl)methyl)-6,7-dihydropyrrolo[3,4-f]isoindole-1,3(2H,5H)-dione] | 10 to 100 nM
C[C@@H]1Cc2c([nH]c3ccccc23)[C@@H](c2c(F)cc(N3CC4(CCN(CC(=O)N5Cc6cc7c(cc6C5)C(=O)N(C5CCC(=O)NC5=O)C7)CC4)C3)cc2F)N1CC(F)F (stereo partly drawn) [E 98, 3-(6-(2-(2-(4-((1R,3R)-2-(2,2-difluoroethyl)-3-methyl-2,3,4,9-tetrahydro-1H-pyrido[3,4-b]indol-1-yl)-3,5-difluorophenyl)-2,7-diazaspiro[3.5]nonan-7-yl)acetyl)-1-oxo-3,5,6,7-tetrahydropyrrolo[3,4-f]isoindol-2(1H)-yl)piperidine-2,6-dione] | < 10 nM
C[C@@H]1Cc2c([nH]c3ccccc23)[C@@H](c2cnc(N3CCC4(CCN(C(=O)CN5Cc6cc7c(cc6C5)C(=O)N(C5CCC(=O)NC5=O)C7=O)CC4)CC3)nc2)N1CC(F)F (stereo partly drawn) [E 258, 6-(2-(9-(5-((1R,3R)-2-(2,2-difluoroethyl)-3-methyl-2,3,4,9-tetrahydro-1H-pyrido[3,4-b]indol-1-yl)pyrimidin-2-yl)-3,9-diazaspiro[5.5]undecan-3-yl)-2-oxoethyl)-2-(2,6-dioxopiperidin-3-yl)-6,7-dihydropyrrolo[3,4-f]isoindole-1,3(2H,5H)-dione] | < 10 nM
C[C@@H]1Cc2cc(O)ccc2[C@@H](c2ccc(N3CCC(C(=O)N4CCC(N5Cc6cc7c(cc6C5)C(=O)N(C5CCC(=O)NC5=O)C7=O)CC4)CC3)cc2)N1CC(F)F (stereo partly drawn) [E 318, 6-(1-(1-(4-((1R,3R)-2-(2,2-difluoroethyl)-6-hydroxy-3-methyl-1,2,3,4-tetrahydroisoquinolin-1-yl)phenyl)piperidine-4-carbonyl)piperidin-4-yl)-2-(2,6-dioxopiperidin-3-yl)-6,7-dihydropyrrolo[3,4-f]isoindole-1,3(2H,5H)-dione] | < 10 nM
O=C1CCC(N2C(=O)c3cc4c(cc3C2=O)CN(CC(=O)N2CC(n3cc(-c5ccc([C@@H]6c7ccc(O)cc7CC[C@@H]6c6ccccc6)cc5)cn3)C2)C4)C(=O)N1 (stereo partly drawn) [E 215, 2-(2,6-dioxopiperidin-3-yl)-6-(2-(3-(4-(4-((1R,2S)-6-hydroxy-2-phenyl-1,2,3,4-tetrahydronaphthalen-1-yl)phenyl)-1H-pyrazol-1-yl)azetidin-1-yl)-2-oxoethyl)-6,7-dihydropyrrolo[3,4-f]isoindole-1,3(2H,5H)-dione] | > 100 nM
O=C1CCC(N2C(=O)c3cc4c(cc3C2=O)CN(Cc2ccc(N3CC(Oc5ccc([C@@H]6c7ccc(O)cc7CC[C@@H]6c6ccccc6)cc5)C3)nc2)C4)C(=O)N1 (stereo partly drawn) [E329, 2-(2,6-dioxopiperidin-3-yl)-6-((6-(3-(4-((1R,2S)-6-hydroxy-2-phenyl-1,2,3,4-tetrahydronaphthalen-1-yl)phenoxy)azetidin-1-yl)pyridin-3-yl)methyl)-6,7-dihydropyrrolo[3,4-f]isoindole-1,3(2H,5H)-dione] | 10 to 100 nM
C[C@@H]1Cc2c([nH]c3ccccc23)[C@@H](c2c(F)cc(N3CCC(CN4CC5(CC(N6Cc7cc8c(cc7C6)C(=O)N(C6CCC(=O)NC6=O)C8=O)C5)C4)CC3)cc2F)N1CC(F)F (stereo partly drawn) [E 131, 6-(2-((1-(4-((1R,3R)-2-(2,2-difluoroethyl)-3-methyl-2,3,4,9-tetrahydro-1H-pyrido[3,4-b]indol-1-yl)-3,5-difluorophenyl)piperidin-4-yl)methyl)-2-azaspiro[3.3]heptan-6-yl)-2-(2,6-dioxopiperidin-3-yl)-6,7-dihydropyrrolo[3,4-f]isoindole-1,3(2H,5H)-dione] | < 10 nM
C[C@@H]1Cc2c([nH]c3ccccc23)[C@@H](c2c(F)cc(N3CC(C(=O)N4CCC(CN5Cc6cc7c(cc6C5)C(=O)N(C5CCC(=O)NC5=O)C7=O)CC4)C3)cc2F)N1CC(F)F (stereo partly drawn) [E 121, 6-((1-(1-(4-((1R,3R)-2-(2,2-difluoroethyl)-3-methyl-2,3,4,9-tetrahydro-1H-pyrido[3,4-b]indol-1-yl)-3,5-difluorophenyl)azetidine-3-carbonyl)piperidin-4-yl)methyl)-2-(2,6-dioxopiperidin-3-yl)-6,7-dihydropyrrolo[3,4-f]isoindole-1,3(2H,5H)-dione] | < 10 nM

Second part, the compound after the results:

DC50 | SMILES
< 10 nM | C[C@@H]1Cc2c([nH]c3ccccc23)[C@@H](c2c(F)cc(-c3ncc(C(=O)N4CCC(N5Cc6cc7c(cc6C5)C(=O)N(C5CCC(=O)NC5=O)C7=O)CC4)cn3)cc2F)N1CC(F)F (stereo partly drawn) [E 346, 6-(1-(2-(4-((1R,3R)-2-(2,2-difluoroethyl)-3-methyl-2,3,4,9-tetrahydro-1H-pyrido[3,4-b]indol-1-yl)-3,5-difluorophenyl)pyrimidine-5-carbonyl)piperidin-4-yl)-2-(2,6-dioxopiperidin-3-yl)-6,7-dihydropyrrolo[3,4-f]isoindole-1,3(2H,5H)-dione]
10 to 100 nM | O=C1CCC(N2C(=O)c3cc4c(cc3C2=O)CN(C2CCC(C(=O)N3CC(Oc5ccc([C@H]6c7ccc(O)cc7CC[C@H]6c6ccccc6)cc5)C3)CC2)C4)C(=O)N1 (stereo partly drawn) [E 384, 2-(2,6-dioxopiperidin-3-yl)-6-((1R,4s)-4-(3-(4-((1S,2R)-6-hydroxy-2-phenyl-1,2,3,4-tetrahydronaphthalen-1-yl)phenoxy)azetidine-1-carbonyl)cyclohexyl)-6,7-dihydropyrrolo[3,4-f]isoindole-1,3(2H,5H)-dione]
10 to 100 nM | O=C1CCC(N2C(=O)c3cc4c(cc3C2=O)CN(CC(=O)N2CCC3(CC2)CCN(c2ccc([C@@H]5c6ccc(O)cc6CC[C@@H]5c5ccccc5)cc2)CC3)CC4)C(=O)N1 (mixture of isomers) [E 162, rac-2-(2,6-dioxopiperidin-3-yl)-6-(2-(9-(4-((1R,2S)-6-hydroxy-2-phenyl-1,2,3,4-tetrahydronaphthalen-1-yl)phenyl)-3,9-diazaspiro[5.5]undecan-3-yl)-2-oxoethyl)-5,6,7,8-tetrahydro-1H-pyrrolo[3,4-g]isoquinoline-1,3(2H)-dione]
< 10 nM | C[C@@H]1Cc2c([nH]c3ccccc23)[C@@H](c2c(F)cc(N3CCC4(CCN(CC(=O)N5Cc6cc7c(cc6C5)C(=O)N(C5CCC(=O)NC5=O)C7=O)CC4)C3)cc2F)N1CC(F)F (stereo partly drawn) [E 107, 6-(2-(2-(4-((1R,3R)-2-(2,2-difluoroethyl)-3-methyl-2,3,4,9-tetrahydro-1H-pyrido[3,4-b]indol-1-yl)-3,5-difluorophenyl)-2,8-diazaspiro[4.5]decan-8-yl)acetyl)-2-(2,6-dioxopiperidin-3-yl)-6,7-dihydropyrrolo[3,4-f]isoindole-1,3(2H,5H)-dione]
< 10 nM | O=C1CCC(N2C(=O)c3cc4c(cc3C2=O)CN(CC(=O)N2CC3(CCN(c5ccc([C@@H]6c7ccc(O)cc7CC[C@@H]6c6ccc(F)cc6)cc5)CC3)C2)C4)C(=O)N1 (mixture of isomers) [E 19, Rac-2-(2,6-dioxopiperidin-3-yl)-6-(2-(7-(4-((1R,2S)-2-(4-fluorophenyl)-6-hydroxy-1,2,3,4-tetrahydronaphthalen-1-yl)phenyl)-2,7-diazaspiro[3.5]nonan-2-yl)-2-oxoethyl)-6,7-dihydropyrrolo[3,4-f]isoindole-1,3(2H,5H)-dione]

same assay, conditions: compounds 16 hours, Table A does not say whether T47D or MCF7, read-out: Potency (DC50)

DC50 | SMILES
10 to 100 nM | O=C1CCC(N2Cc3cc4c(cc3C2=O)CN(C(=O)[C@H]2CC[C@H](CN3CC(Oc5ccc([C@@H]6c7ccc(O)cc7CC[C@@H]6c6ccccc6)cc5)C3)CC2)C4)C(=O)N1 (mixture of isomers) [E 491]
